# According to US20230218723A1, “COMPOSITIONS AND METHODS FOR USING SILK-ELASTINLIKE PROTEIN-BASED POLYMERS” (University of Utah Research Foundation, priority 2019, published 2023):
# Experiments:
# [1] = cited from earlier work
# HUVEC = assay: Cytotoxicity of ICG and SELP-ICG, CCK-8, HUVEC; type: cell-based, human; settings: 24 hrs, as ICG concentration
# Description: (§1) L-929 and HUVEC were selected for use in assessing the cytotoxicity of the SELP-ICG embolic based upon their utility with respect to regulatory testing and relevance to the intended application of the device. L-929 cells are commonly used for FDA testing of contact cytotoxicity of medical devices, such as embolics. HUVEC represents a human cell line, another common cell that is also frequently used for evaluating cytotoxicity. Additionally, HUVEC represents vascular endothelial cells that embolic SELP will be in close contact with during in vivo administration. L-929 fibroblasts were grown with Dulbecco's Modified Eagle Medium (DMEM):F12 (1:1) media, supplemented with 10% FBS, and HUVECs were grown in ECGM. The cells were grown in T-75 flasks at 37° C. with 5% CO2 and passaged at 80-95% confluency. Cells were suspended using TrypLE™ Express Enzyme with no phenol red according to the manufactures protocol. The viability of cells was assessed using 0.4% trypan blue stain using a Countess Automated Cell Counter (ThermoFisher Scientific, Waltham, Mass.). L-929 cells were seeded into new T-75 flasks with 3×10^5 to 6×10^5 viable cells. […] Viability was measured after 24 hrs using a Cell Counting Kit (CCK)-8 assay kit (Dojindo, Kumamoto, Japan). […] LD50 values were determined by fitting the data to a Hill plot with a variable slope using GraphPad Prism 5.0.
# L-929 fibroblasts = assay: Cytotoxicity of ICG and SELP-ICG, CCK-8, L-929; type: cell-based, murine; settings: L929 cells, 24 hrs, as ICG concentration
# Description: as §1
# [2] = ICG fluorescence imaging, IVIS and clinical endoscope; type: physicochemical
# Method: A Karl Storz 4 mm×18 cm ICG endoscope (Karl Storz, Tuttlingen, Germany) attached with a Power LED light source with fiber optic ICG cable and Karl Storz Image is Video System with ICG High Def Camera Head (Karl Storz, Tuttlingen, Germany) was used for imaging the ICG at different concentrations. ICG solution was prepared by mixing 25 mg of ICG in 1 mL of water, resulting in a 25 mg/mL solution. The solution was diluted by half in subsequent wells of a 96-well plate, and the last well was filled with only water (negative control). The endoscope's imaging head was held 4 mm above the surface of the 96-well plate to acquire images. Fluorescent light was captured by the camera and shown as blue. The intensity of the fluorescent light was quantified using the Zen Lite Blue software version 2.6 (Zeiss, Oberkochen, Germany). A fixed area of equal size for each well was selected, and the fluorescence was quantified by taking the arithmetic mean intensity of blue contribution for that particular region in pixels. IVIS was used to image ICG at different concentrations. […] An overlay image combination of photographic and fluorescent image was recorded. The region of interest (ROI) tool was used to perform quantification of the surface intensities. Equal size ROIs were drawn on each well of the plate, and the radiant efficiency was recorded by the software for each defined ROI. […]
smiles,measurement,setting,value
"CC1(C)C(/C=C/C=C/C=C/C=C2\N(CCCCS(=O)(=O)O)c3ccc4ccccc4c3C2(C)C)=[N+](CCCCS(=O)(=O)[O-])c2ccc3ccccc3c21 [ICG, Indocyanine green]",half-life,[1]; clearance from the bloodstream after intravenous administration,3 to 5 min
same,share of the dose remaining within the tumor by the time of surgery,[1]; intravenous administration,approximately 0.05%
same,LD50,HUVEC,0.068 ± 0.009 mg/mL
same,LD50,L-929 fibroblasts,0.28 ± 0.14 mg/mL
same,optimal concentration for fluorescence,[2]; IVIS and Karl Storz ICG endoscope,0.012 mg/mL
same,concentration above which self-quenching occurs,[2]; image analysis,higher than 0.012 mg/mL
